From article PMC12164272, “Ruthenium(II) Polypyridyl Complexes Containing COUBPY Ligands as Potent Photosensitizers for the Efficient Phototherapy of Hypoxic Tumors” (Journal of the American Chemical Society, 2025)
Where two headings read alike, the source gives them in different places.

Key:
[1] = cited from earlier work
CT-26 cancer cells = assay: (Photo)cytotoxicity in 2D monolayer cells under normoxia (21% O2), resazurin assay; type: cell-based, murine; conditions: for Phototherapeutic index (PI) = IC50(dark)/IC50(light): normoxia; for IC50: Mus musculus
Experimental: To that end, cells were incubated for 4 h with increasing concentrations of the compounds, and after refreshing the medium, they were either illuminated or kept in the dark. […] The phototoxic index (PI), defined as the ratio of dark to light IC50 values, was used to quantify the phototherapeutic efficiency of the tested compounds. […] Using a well-by-well monochromatic LED device, cells were irradiated with green (540 nm, 40 min), yellow (595 nm, 1 h), red (620 nm, 1 h), deep-red (645 nm, 1 h), far-red (670 nm, 1 h), or NIR (740 nm, 1 h) light, with fluences ranging from 3.4 J/cm^2 (595 nm) to 13.5 J/cm^2 (670 nm).
In vitro (photo)cytotoxicity determination of Ru-COUBPY PSs
CT-26 cells were cultured in Dulbecco’s modified Eagle medium (DMEM) (Gibco)
supplemented with 10% fetal calf serum (Gibco) and 2 mM L-glutamine.
the corresponding culture medium was supplemented with 100 U·mL−1 penicillin streptomycin
mixture (Gibco) and cells were maintained in a humidified atmosphere at 37 °C and 5 % of
(Photo)cytotoxicity evaluation in 2D monolayer cells under normoxia (21% O2)
The (photo)cytotoxicity of the test compounds under normoxia (21% O2) was assessed by a
fluorometric cell viability assay using Resazurin (Acros Organics). CT-26 cells were seeded in
triplicate in 96-well plates at a density of 4000 cells/well in complete medium in a final volume
of 100 μL/well. After 24 h, cells were treated with increasing concentrations of the test
compounds using serial dilutions of the test compounds in complete culture medium (DMSO
≤1 %) at final concentrations in the range of 0 to 250 μM (100 μL/well), followed by a 4-h
incubation at 37 °C, 5% CO2 in the dark. The medium containing the PS was then replaced with
fresh medium (100 μL/well) and plates were irradiated for 1 h at 37 °C, 0 % CO2 with 540 nm
(spectral half-width: 32 nm, 40 min, 3.75 mW cm−2, 9.0 J cm−2), 595 nm (spectral half-width:
mW cm−2, 6.7 J cm−2), 645 nm (spectral half-width: 32 nm, 60 min, 2.50 mW cm−2, 9.0 J cm−2),
670 nm (spectral half-width: 32 nm, 60 min, 3.75 mW cm−2, 13.5 J cm−2) or 740 nm (spectral
half-width: 32 nm, 60 min, 3.50 mW cm−2, 12.6 J cm−2) light using a LED multi-well plate
photo-irradiation system (Atlas Photonics Lumos Bio). To evaluate the cytotoxicity of the test
compounds in the dark, three additional plates of treated cells were kept in the dark for 1 h at
37 °C, 0 % CO2. Cells were then kept in the incubator (37 °C, 5 % CO2) over a recovery period
of 44 h. Next, the medium was replaced with complete medium containing Resazurin (0.2
mg/mL, 100 μL/well), followed by a 4-h incubation at 37 °C, 5 % CO2. Finally, the fluorescence
signal of the Resorufin product was measured (ex = 540 nm, em = 590 nm) using a Infinite
200 PRO Microplate Reader from TECAN. IC50 values were then calculated based on the
inhibitory rate curves using the following equation (6)
where I represent the percentage inhibition of viability observed, Imax is the maximal inhibitory
effect, IC50 is the concentration that inhibits 50% of maximal growth, C is the concentration of
the treatment and n is the slope of the semi-logarithmic dose-response sigmoidal curves. The
non-linear fitting was performed using GraphPad Prism software. All experiments were
performed in three independent studies with triplicate points per concentration level.

SMILES: CN(C)c1ccc2nc3ccc(=[N+](C)C)cc-3sc2c1 [methylene blue]
- reference singlet oxygen quantum yield ΦΔ,ref ([1]; aerated DCM): 0.57

SMILES: C=CC1=C(C)c2cc3[nH]c(cc4nc(cc5[nH]c(cc1n2)c(C)c5CCC(=O)O)C(CCC(=O)O)=C4C)c(C)c3C=C [PpIX, Protoporphyrin IX]
- Phototherapeutic index (PI) = IC50(dark)/IC50(light) (CT-26 cancer cells; 540 nm): >312
- Phototherapeutic index (PI) = IC50(dark)/IC50(light) (CT-26 cancer cells; 595 nm): >250
- Phototherapeutic index (PI) = IC50(dark)/IC50(light) (CT-26 cancer cells; 620 nm): >151
- Phototherapeutic index (PI) = IC50(dark)/IC50(light) (CT-26 cancer cells; 645 nm): >588
- Phototherapeutic index (PI) = IC50(dark)/IC50(light) (CT-26 cancer cells; 670 nm): >129
- Phototherapeutic index (PI) = IC50(dark)/IC50(light) (CT-26 cancer cells; 740 nm): >50
- IC50 (CT-26 cancer cells; CT26, 540 nm, 9.0 J cm–2, normoxia 21% O2): 320 ± 90 nM
- IC50 (CT-26 cancer cells; CT26, 595 nm, 3.4 J cm–2, normoxia 21% O2): 400 ± 10 nM
- IC50 (CT-26 cancer cells; CT26, 620 nm, 6.7 J cm–2, normoxia 21% O2): 660 ± 210 nM
- IC50 (CT-26 cancer cells; CT26, 645 nm, 9.0 J cm–2, normoxia 21% O2): 170 ± 210 nM
- IC50 (CT-26 cancer cells; CT26, 670 nm, 13.5 J cm–2, normoxia 21% O2): 770 ± 200 nM
- IC50 (CT-26 cancer cells; CT26, 740 nm, 12.6 J cm–2, normoxia 21% O2): 2100 ± 200 nM
- IC50 (CT-26 cancer cells; CT26, 4 h, dark, normoxia 21% O2, 4 h incubation): > 100000 nM

SMILES: [Cl][Ru][Cl].c1ccc(-c2ccccn2)nc1.c1ccc(-c2ccccn2)nc1.c1ccc(-c2ccccn2)nc1 [[Ru(bpy)3]Cl2]
- reference singlet oxygen quantum yield ΦΔ,ref ([1]; aerated CH3CN): 0.57
